Numbers after ± are expanded uncertainties.
Tests used:
[1] = Molar enthalpy of transition or fusion; settings: Crystal; DSC
[2] = for Normal melting temperature: Crystal; for Normal melting temperature / Glass transition temperature: DTA; for mass density: 293.1 K, 101.33 kPa, Liquid, Pycnometric method
[3] = refractive index (Na D-line) (dimensionless); settings: 293.1 K; 101.33 kPa; Liquid; Standard Abbe refractometry

Question: Which results are given for `CCCCCCCC[n+]1cc(C)cc(C)c1.F[B-](F)(F)F` [3,5-dimethyl-1-octylpyridinium tetrafluoroborate]?
Answer: Molar enthalpy of transition or fusion [1]: 6.71 ± 0.201 kcal/mol; Normal melting temperature [2]: 56.0 ± 2 °C

Question: With `CCCCCCCC[n+]1cccc(C)c1C.O=S(=O)([O-])C(F)(F)F` as the compound, how does the mass density [2] read?
Answer: 1180 ± 20 kg/m3

Question: What about the Glass transition temperature [2] of the same compound?
Answer: -63.0 ± 2 °C

Question: What about the refractive index [3] of the same compound?
Answer: 1.4725 ± 0.0016

Question: What does the source list for `CCCCCCCC[n+]1cc(C)cc(C)c1C.N#C[S-]` [2,3,5-trimethyl-1-octylpyridinium thiocyanate]?
Answer: Molar enthalpy of transition or fusion [1]: 3.5 ± 0.127 kcal/mol; Normal melting temperature [2]: 20.0 ± 2 °C; Glass transition temperature [2]: -58.0 ± 2 °C

Question: Which mass density [2] does the source give for `CCCCCCCC[n+]1cc(C)cc(C)c1.N#C[N-]C#N` [3,5-dimethyl-1-octylpyridinium dicyanamide] here?
Answer: 1000 ± 20 kg/m3

Question: What about the Glass transition temperature [2] of the same compound?
Answer: -78.0 ± 2 °C

Question: What about the refractive index [3] of the same compound?
Answer: 1.5196 ± 0.0016

Question: Which “Molar enthalpy of transition or fusion” value [1] does the source give for `CCCC[n+]1cccc(C)c1C.O=S(=O)([O-])C(F)(F)F` here?
Answer: 4.03 ± 0.139 kcal/mol

Question: What about the mass density [2] of the same compound?
Answer: 1370 ± 20 kg/m3

Question: And the Normal melting temperature [2]?
Answer: 17.0 ± 2 °C

Question: And the Glass transition temperature [2]?
Answer: -69.0 ± 2 °C

Question: And the refractive index [3]?
Answer: 1.4748 ± 0.0016

Question: Which “Molar enthalpy of transition or fusion” value [1] does the source give for `CCCCCCCC[n+]1cc(C)cc(C)c1.O=S(=O)([O-])C(F)(F)F` here?
Answer: 5.93 ± 0.182 kcal/mol

Question: And the Normal melting temperature [2]?
Answer: 76.0 ± 2 °C

Question: For `CCCC[n+]1cccc(C)c1C.N#C[N-]C#N` [1-butyl-2,3-dimethylpyridinium dicyanamide], which Glass transition temperature [2] is on record?
Answer: -72.0 ± 2 °C

Question: What about the refractive index [3] of the same compound?
Answer: 1.5403 ± 0.0016

Question: Which results are given for `CCCCCCCC[n+]1cc(C)cc(C)c1.N#C[S-]` [3,5-dimethyl-1-octylpyridinium thiocyanate]?
Answer: Molar enthalpy of transition or fusion [1]: 1.53 ± 0.086 kcal/mol; mass density [2]: 1000 ± 20 kg/m3; Normal melting temperature [2]: -38.0 ± 2 °C; Glass transition temperature [2]: -74.0 ± 2 °C; refractive index [3]: 1.5415 ± 0.0016

Question: What does the source list for `CCCCCCCC[n+]1cc(C)cc(C)c1C.[I-]` [2,3,5-trimethyl-1-octylpyridinium iodide]?
Answer: Glass transition temperature [2]: -31.0 ± 2 °C; refractive index [3]: 1.5776 ± 0.0016

Question: For `CCCCCCCC[n+]1cc(C)cc(C)c1C.O=S(=O)([N-]S(=O)(=O)C(F)(F)F)C(F)(F)F`, which mass density [2] is on record?
Answer: 1280 ± 20 kg/m3

Question: What about the Glass transition temperature [2] of the same compound?
Answer: -72.0 ± 2 °C

Question: What about the refractive index [3] of the same compound?
Answer: 1.4617 ± 0.0016

Question: What does the source list for `CCCC[n+]1cc(C)cc(C)c1.O=S(=O)([O-])C(F)(F)F`?
Answer: Molar enthalpy of transition or fusion [1]: 6.81 ± 0.203 kcal/mol; mass density [2]: 1390 ± 20 kg/m3; Normal melting temperature [2]: 91.0 ± 2 °C

Question: Which mass density [2] does the source give for `CCCCCCCC[n+]1cccc(C)c1C.N#C[S-]` [2,3-dimethyl-1-octylpyridinium thiocyanate] here?
Answer: 1020 ± 20 kg/m3

Question: And the Glass transition temperature [2]?
Answer: -65.0 ± 2 °C

Question: What about the refractive index [3] of the same compound?
Answer: 1.5489 ± 0.0016

Question: Which mass density [2] does the source give for `CCCC[n+]1cccc(C)c1C.O=S(=O)([N-]S(=O)(=O)C(F)(F)F)C(F)(F)F` here?
Answer: 1370 ± 20 kg/m3

Question: And the Glass transition temperature [2]?
Answer: -81.0 ± 2 °C

Question: And the refractive index [3]?
Answer: 1.4497 ± 0.0016

Question: With `CCCC[n+]1cc(CC)ccc1C.O=S(=O)([N-]S(=O)(=O)C(F)(F)F)C(F)(F)F` as the compound, how does the mass density [2] read?
Answer: 1370 ± 20 kg/m3

Question: And the Glass transition temperature [2]?
Answer: -81.0 ± 2 °C

Question: And the refractive index [3]?
Answer: 1.4552 ± 0.0016

Question: With `CCCC[n+]1cc(C)cc(C)c1C.O=S(=O)([O-])C(F)(F)F` as the compound, how does the “Molar enthalpy of transition or fusion” value [1] read?
Answer: 5.01 ± 0.16 kcal/mol

Question: What about the Normal melting temperature [2] of the same compound?
Answer: 74.0 ± 2 °C

Question: With `CCCCCCCC[n+]1cc(CC)ccc1C.N#C[N-]C#N` [5-ethyl-2-methyl-1-octylpyridinium dicyanamide] as the compound, how does the Normal melting temperature [2] read?
Answer: 53.0 ± 2 °C

Question: What about the Glass transition temperature [2] of the same compound?
Answer: -59.0 ± 2 °C

Question: Which “Molar enthalpy of transition or fusion” value [1] does the source give for `CCCCCCCC[n+]1cc(CC)ccc1C.[I-]` [5-ethyl-2-methyl-1-octylpyridinium iodide] here?
Answer: 7.38 ± 0.217 kcal/mol

Question: What about the Normal melting temperature [2] of the same compound?
Answer: 87.0 ± 2 °C

Question: And the Glass transition temperature [2]?
Answer: -33.0 ± 2 °C

Question: What does the source list for `CCCCCCCC[n+]1cc(C)cc(C)c1.O=S(=O)([N-]S(=O)(=O)C(F)(F)F)C(F)(F)F`?
Answer: mass density [2]: 1280 ± 20 kg/m3; Glass transition temperature [2]: -78.0 ± 2 °C; refractive index [3]: 1.4526 ± 0.01

Question: For `CCCCCCCC[n+]1cccc(C)c1C.O=S(=O)([N-]S(=O)(=O)C(F)(F)F)C(F)(F)F`, which mass density [2] is on record?
Answer: 1290 ± 20 kg/m3

Question: What about the Glass transition temperature [2] of the same compound?
Answer: -70.0 ± 2 °C

Question: What about the refractive index [3] of the same compound?
Answer: 1.4571 ± 0.01

Question: Which results are given for `CCCC[n+]1cc(C)cc(C)c1.O=S(=O)([N-]S(=O)(=O)C(F)(F)F)C(F)(F)F`?
Answer: mass density [2]: 1390 ± 20 kg/m3; Glass transition temperature [2]: -73.0 ± 2 °C; refractive index [3]: 1.4559 ± 0.0016

Question: Which results are given for `CCCC[n+]1cc(C)cc(C)c1.N#C[S-]` [1-butyl-3,5-dimethylpyridinium thiocyanate]?
Answer: Molar enthalpy of transition or fusion [1]: 3.83 ± 0.134 kcal/mol; Normal melting temperature [2]: 13.0 ± 2 °C; Glass transition temperature [2]: -57.0 ± 2 °C

Question: For `CCCCCCCC[n+]1cc(C)cc(C)c1.[I-]` [3,5-dimethyl-1-octylpyridinium iodide], which “Molar enthalpy of transition or fusion” value [1] is on record?
Answer: 6.08 ± 0.186 kcal/mol

Question: And the Normal melting temperature [2]?
Answer: 82.0 ± 2 °C

Question: What about the Glass transition temperature [2] of the same compound?
Answer: -41.0 ± 2 °C

Question: Which Glass transition temperature [2] does the source give for `CCCCCCCC[n+]1cc(C)cc(C)c1C.O=S(=O)([O-])C(F)(F)F` here?
Answer: -56.0 ± 2 °C

Question: Which mass density [2] does the source give for `CCCCCCCC[n+]1cc(CC)ccc1C.O=S(=O)([N-]S(=O)(=O)C(F)(F)F)C(F)(F)F` here?
Answer: 1280 ± 20 kg/m3

Question: And the Glass transition temperature [2]?
Answer: -78.0 ± 2 °C

Question: Which “Molar enthalpy of transition or fusion” value [1] does the source give for `CCCC[n+]1cc(C)cc(C)c1.N#C[N-]C#N` [1-butyl-3,5-dimethylpyridinium dicyanamide] here?
Answer: 0.92 ± 0.0765 kcal/mol

Question: What about the Normal melting temperature [2] of the same compound?
Answer: -1.0 ± 2 °C

Question: What about the Glass transition temperature [2] of the same compound?
Answer: -80.0 ± 2 °C

Question: What about the refractive index [3] of the same compound?
Answer: 1.5278 ± 0.0016

Question: Which mass density [2] does the source give for `CCCC[n+]1cc(C)cc(C)c1C.O=S(=O)([N-]S(=O)(=O)C(F)(F)F)C(F)(F)F` here?
Answer: 1370 ± 20 kg/m3

Question: And the Glass transition temperature [2]?
Answer: -74.0 ± 2 °C

Question: And the refractive index [3]?
Answer: 1.4583 ± 0.0016
